From patent publication US12053533B2, “Fluorescent probe for cyclooxygenase-2” (The Board of Trustees of the University of Illinois, priority 2020, dated 2024)

Columns and labels:
COX-2 [1] = target: T1, COX-2 (Homo sapiens, UniProt P35354); settings: comparison values for other COX-2 substrates; cited from earlier work
T1 sequence (P35354 18-604): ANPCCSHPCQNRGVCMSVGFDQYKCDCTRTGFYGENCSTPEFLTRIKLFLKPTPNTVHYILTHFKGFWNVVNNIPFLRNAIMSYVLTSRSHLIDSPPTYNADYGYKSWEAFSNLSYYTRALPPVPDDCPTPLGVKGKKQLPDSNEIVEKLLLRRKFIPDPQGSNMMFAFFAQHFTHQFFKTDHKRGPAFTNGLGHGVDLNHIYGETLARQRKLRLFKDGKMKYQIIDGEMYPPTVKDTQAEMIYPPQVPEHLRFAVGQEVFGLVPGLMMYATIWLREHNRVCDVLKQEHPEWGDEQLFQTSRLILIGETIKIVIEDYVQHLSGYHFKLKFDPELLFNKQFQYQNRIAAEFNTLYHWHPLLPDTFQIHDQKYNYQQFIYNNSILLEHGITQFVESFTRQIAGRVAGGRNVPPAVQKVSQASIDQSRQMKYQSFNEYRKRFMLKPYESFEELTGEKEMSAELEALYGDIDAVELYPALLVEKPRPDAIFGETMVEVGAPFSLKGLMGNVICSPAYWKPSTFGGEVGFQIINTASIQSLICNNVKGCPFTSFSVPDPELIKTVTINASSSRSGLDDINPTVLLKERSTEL

COX-2 [2] = target: T1, COX-2; test: COX-2 fluorescence assay with CoxFluor (fluorimeter / plate reader); format: biochemical; set-up: made in house; settings: COX-2 250 nM, 4 h
Method: Fluorimeter Fluorescence Assay. The fluorescence assays were performed in microquartz cuvettes or submicroquartz cuvettes with a maximum volume of 600 μL. Reactions were monitored at room temperature using 540 nm excitation and emission was collected from 550-700 nm with a slit width of 1.25 mm. Total volumes of the reaction mixtures were maintained at 570 μL. […] Experiments in the presence of reduced GSH were conducted according to the same procedure, but GSH (30 μL, 19 mM in 100 mM Tris-HCl, pH 8.0) was added before the addition of CoxFluor for a final concentration of 1 mM. Assays performed in submicroquartz cuvettes were performed maintaining the same ratios, but with a final volume of 142.5 μL.
Plate Reader Fluorescence Assay. The fluorescence assays were performed at room temperature using 540 nm excitation and 590 nm emission. Total volume of the reaction mixture was maintained at 190 μL. […] Inhibition assays were performed according to the same procedure, but COX-2 was preincubated with hemin and inhibitor for 0.5 h at 0° C. before initiation with CoxFluor. Relative fluorescence enhancement is calculated by comparing to a buffer control with 10 μM CoxFluor.

[3] = Photophysical characterization; format: physicochemical
Method: Photophysical Characterization. Extinction coefficients and fluorescence quantum yields were acquired (n=3) and reported as the average with a relative standard deviation less than 15%. Extinction coefficients were acquired by titrating compound in 100 mM Tris-HCl (pH 8.0) within the linear range. Fluorescence quantum yields were obtained using the modified method for relative fluorescence quantum yield. Dye was titrated into the solution and the absorbance and emission were monitored (excitation at 540 nm). The absorbance was maintained below 0.1 to limit secondary absorbance events. Total emission spectra were integrated, and the relative quantum yield was calculated relative to Rhodamine B (ϕ=0.70, ethanol). The refractive index of 100 mM Tris-HCl (pH 8.0) was measured to be 1.33514.

[4] = CoxFluor, Ctrl-CoxFluor & Resorufin stability assays; format: physicochemical; settings: 8 hours at room temperature or 37° C., with or without ambient light
Method: CoxFluor, Ctrl-CoxFluor & Resorufin Stability Assays. Stability assays were performed for a 10 μM solution of each compound in a series of buffers/solvents (100 mM Tris-HCl at pH 8.0, DMEM with 10% FBS, DMEM without serum and DMSO). Stability was assessed at room temperature or at 37° C. and in the presence or absence of ambient light. Fluorescence was measured using the plate reader with excitation at 540 nm and emission from 560-700 nm and the relative turn-on was determined by the change of fluorescence intensity at 590 nm.

[5] = ethanol; cited from earlier work
[6] = tested on: COX-2 activity in HEK 293T cells over-expressing human COX-2; test: Confocal live-cell imaging of human COX-2 transfected HEK 293T cells; format: cell-based; settings: indomethacin 10 μM, CoxFluor 10 μM, 3 h
Method: Prior to plating onto 4-well chambered cover glasses, the surface exposed substrate was coated with R&D Systems™ Cultrex Poly-L-Lysine (Fisher Scientific) according to the manufacturers protocol (allowed to dry>3 h). […] Transfections was performed using Lipofectamine 3000 (Thermo Fisher Scientific) according to the manufacturer's protocol. […] Media was removed from each well and replaced with 500 μL Opti-MEM™ Reduced Serum Media followed by the addition of 20 μL transfection master mix.
Transfections were performed using the Lipofectamine 3000 reagent according to the aforementioned protocol. Control wells were treated the same as the transfected wells without the addition of the transfection master mix. […] Each well was imaged using a Zeiss LSM 700 confocal microscope (n=3 technical replicates; n=4 biological replicates). For GSH knockdown experiments, the initial media change was performed with 1 mM NEM (0.1% DMSO final concentration) in serum-free DMEM media and the cells were allowed to incubate for 30 minutes before proceeding to the staining with CoxFluor. […] All images were processed using identical parameters and false colored (LUT: jet.lut) in ImageJ.

[7] = substrate: CCCCC/C=C\C/C=C\C/C=C\C/C=C\CCCC(=O)N1c2ccc(O)cc2Oc2cc(O)ccc21; test: COX-2 fluorescence assay with CoxFluor (fluorimeter / plate reader); format: biochemical, human; settings: other: steady state; COX-2 50 nM, hemin 200 nM; pH 8.0

CCCCC/C=C\C/C=C\C/C=C\C/C=C\CCCC(=O)O [AA, arachidonic acid]
Km (COX-2 [1]): 6 µM

CCCCC/C=C\C/C=C\C/C=C\C/C=C\CCCC(=O)NCCO [arachidonyl ethanolamide]
Km (COX-2 [1]): 24 µM

CCN1C(=O)C=CC1=O [NEM, N-ethylmaleimide, reference compound]
effect on COX activity (COX-2 [2]; varying N-ethylmaleimide concentrations, CoxFluor 10 μM): does not affect COX activity

CCCCCCCCCCCCCCCCCCCC(=O)N1c2ccc(O)cc2Oc2cc(O)ccc21 [Ctrl-CoxFluor]
reactivity with COX-2 under the same reaction conditions (COX-2 [2]; hemin 1 μM): unreactive

O=c1ccc2nc3ccc(O)cc3oc-2c1 [resorufin, reference compound]
extinction coefficient ε at 573 nm ([3]; 100 mM Tris-HCl pH 8.0): 73,000 M^−1cm^−1
fluorescence quantum yield ΦF ([3]; 100 mM Tris-HCl pH 8.0, relative to Rhodamine B): 0.55
stability in Tris-HCl and DMEM buffer systems [4]: stable

CCN(CC)c1ccc2c(-c3ccccc3C(=O)O)c3ccc(=[N+](CC)CC)cc-3oc2c1.[Cl-] [Rhodamine B]
quantum yield ϕ of reference standard [5]: 0.70

COc1ccc2c(c1)c(CC(=O)O)c(C)n2C(=O)c1ccc(Cl)cc1 [indomethacin, reference compound]
fluorescence enhancement of transfected cells upon treatment with inhibitor [6]: no fluorescence enhancement was observed

B1: recombinant human COX-2 (Homo sapiens) (protein)
chain: T1 sequence (P35354 18-604)
notes: made in house
Km [7]: 22 µM
kcat [7]: 0.317 s⁻¹
